# Assay results: paper PMC10780819, “Enhanced Cytotoxicity and Antimelanoma Activity of Novel Semisynthetic Derivatives of Betulinic Acid with Indole Conjugation” (Plants, 2023)
# “Also recorded” adds a separate entry of the source.
# Key:
# [1] = system: murine melanoma cells B164A5; set-up: cell viability: dose or concentration left out as unconfirmed; conditions: cited from earlier work
# B164A5 cells = assay: Scratch (wound healing) anti-migratory assay; type: cell-based, murine; conditions: 50 µM, 24 h
# Method: To evaluate the invasion capability of B164A5 cells after stimulation with the tested compounds (1, 10, 25, and 50 µM), a scratch-based experiment was conducted. In summary, a quantity of 2 × 10^5 cells/well were evenly distributed onto 12-well culture plates until a complete and cohesive layer of cells was achieved. Subsequently, a sterile pipette tip was used to create a void in the center of each well. The cells and cellular debris that were detached subsequent to the process were carefully rinsed using phosphate buffer saline (PBS). Additionally, the cells were subjected to stimulation with the tested compounds. Photographs of the scratched region were captured at two time points: 0 h and 24 h. The images were obtained using an inverted microscope (Olympus IX73, Olympus, Tokyo, Japan) with a DP74 camera (Olympus, Tokyo, Japan) at a magnification of 10×. The cellSense Dimension program was used for the purpose of analyzing cell growth.
# The scratch closure rate was calculated using the formula [78]:Scratch closure rate = [(At0 − At)/[…]] × 100, where At0 represents the initial scratch area at time 0 h, and At represents the scratch area after 24 h.
# [2] = system: murine melanoma cells (B164A5); assay: Neutral Red (NR) cytotoxicity assay; conditions: 75 µM, 72 h
# Text: In addition to undertaking the MTT proliferation assessment, the NR technique was used to measure the cytotoxicity rate of the substances being studied. The underlying premise of this methodology depends upon the measurement of live cells using the NR chromophore, which effectively stains the lysosome of living cells. […] Consequently, live cells have the capability to secrete the NR dye when subjected to acidic conditions. Moreover, the intensity of the dye may be directly associated with the quantity of living cells, thereby enabling the assessment of drug-induced cytotoxicity.
# In summary, the experimental procedure included subjecting the cells to five different doses (1, 10, 25, 50, and 75 µM) of test samples for a duration of 72 h. Subsequently, a volume of 10 μL of a 0.33% NR solution was introduced into each well, followed by an incubation period of at least 3 h. Following the completion of the incubation time, the medium was extracted, and the cells were promptly rinsed with a 50 μL solution of NR assay fixative. Subsequently, a solubilization step was carried out using a 100 μL solution of NR assay solubilization solution per well.
# HaCaT cells = conditions: concentrations over 10 μM; cited from earlier work
# [3] = system: murine melanoma B164A5 cells; assay: Hoechst 33342 nuclear staining; type: cell-based; conditions: 25, 50, 75 μM tested; exposure per Figure 7 legend
# Method: The procedure was implemented in accordance with the manufacturer’s recommendations. […] A positive control was used to induce apoptosis, using a concentration of 5 µM staurosporine for a duration of 3 h at a temperature of 37 °C. Similarly, for necrosis induction, a concentration of 0.5% Triton X-100 was utilized, with an incubation period of 30 min at 37 °C.
# [4] = system: human melanoma cell line A375; set-up: method as in PMID 36986941; conditions: cited from earlier work; for wound healing rate: 50 µM
# [5] = system: B164A5 murine melanoma cells; assay: MTT cell viability assay on B164A5; conditions: for reduction of cellular viability: 1 µM, 72 h, MTT; for viability at 75 µM: read-out: cell viability (growth percentage), 75 µM, 72 h, MTT; for viability at 1 µM: read-out: cell viability, 1 µM, 72 h, MTT
# Method: (§1) The MTT assay was used to determine the effect of 2,3-indolo-betulinic acid derivatives and betulinic acid on the viability of HaCaT human keratinocyte cell line and B164A5 murine melanoma cells. […] Briefly, 1 × 10^4 cells per well were seeded onto 96-well culture plates and incubated until 70–80% confluence was achieved. Subsequently, the cells were subjected to stimulation for a duration of 72 h using five distinct concentrations (1, 10, 25, 50, and 75 µM) of the test samples. Following a 72 h incubation period, a 10 μL amount of a 5 mg/mL MTT solution obtained from the MTT kit (Sigma-Aldrich, St. Louis, MO, USA) was introduced into each well and subjected to an additional 3 h incubation. The formazan crystals that had been yielded were dissolved by the addition of 100 μL per well of the lysis solution that was included in the MTT kit. B164A5 cells and HaCaT cells were used as a control, and they were only treated with culture medium for 72 h. The spectrophotometric analysis of absorbance was performed at a wavelength of 570 nm using a microplate reader (BioRad, Hercules, CA, USA, xMark Microplate Spectrophotometer).
# [6] = system: HaCaT human keratinocyte cell line; assay: MTT cell viability assay on HaCaT; conditions: for reduction in cell viability: increasing dosages (25, 50, and 75 μM), 72 h
# Method: (§2) The effect of testing substances (BI and BA1-BA4) on the survival of human keratinocytes cell line HaCat was also assessed.
# as §1
# [7] = system: B164A5 murine melanoma cells; assay: Lactate dehydrogenase (LDH) release assay; conditions: 75 µM, 72 h
# Method: The LDH technique is used to evaluate the extracellular release of internal lactate dehydrogenase subsequent to the disruption of the cellular membrane.
# The present investigation used the LDH test to assess the cytotoxicity and necrosis-related events that transpired after the exposure of B164A5 murine melanoma cells to the test samples for a duration of 72 h.
# The experimental procedure was conducted in accordance with the instructions outlined in the pierce LDH cytotoxicity assay kit, which was supplied by the manufacturer (Thermo Fisher Scientific, Boston, MA, USA).
# [8] = system: human melanoma A375 cells; conditions: cited from earlier work; for cytotoxic effect (LDH): 25 µM
# in vitro = conditions: human
# Method: as §2, §1
# [9] = system: A375 human melanoma cells; set-up: method as in PMID 27553358; conditions: 72 h incubation; cited from earlier work
# SK-MEL-2 cells = system: SK-MEL-2 cells; set-up: method as in doi:10.1134/S1068162018030081; conditions: 100 µM, 48 h; cited from earlier work
# Lox IMVI melanoma cells = system: Lox IMVI melanoma cells; set-up: method as in doi:10.1134/S1068162018030081; conditions: 100 µM, 48 h; cited from earlier work
# [10] = MTT cell viability assay on HaCaT; conditions: human, HaCaT keratinocyte cells
# Method: as §2, §1
Compound,wound healing rate (scratch closure rate) (B164A5 cells) [%],nuclear changes (apoptosis / necrosis) [3],reduction of cellular viability [5] [%],"IC50 ([5]; Mus musculus, B16-4A5, 72 h) [µM]","viability at 75 µM ([5]; Mus musculus, B16-4A5, 72 h) [%]","viability at 1 µM ([5]; Mus musculus, B16-4A5, 72 h) [%]",reduction in cell viability [6],cytotoxic effect (LDH) [8] [%],"viability at 72 h, 75 µM (in vitro) [%]",wound healing rate [4] [%],inhibitory activity relative to BA4 ([5]; ratio of IC50 values),further results
"C=C(C)[C@@H]1CC[C@]2(C(=O)O)CC[C@]3(C)[C@H](CC[C@@H]4[C@@]5(C)CC[C@H](O)C(C)(C)[C@@H]5CC[C@]43C)[C@@H]12 [BI, Betulinic acid]",34.9,necrosis only from a concentration of 50 μM; also recorded: necrosis was evident in cells exposed to BA4 and BI only at a concentration of 50 μM,32,21.14 ± 0.08,9.6,31.3,around 21%,21.2,,,,"reduction in cell viability ([1]; 25 µM, 48 h of exposure): 40%; cell viability ([1]; 72 h of exposure): 50%; cytotoxicity rate (NR assay) [2]: 63.0%; decrease in cell viability (HaCaT cells): 20%; scratch closure rate ([4]; 25 µM): 17.5%; reduction in cell viability ([5]; 25 µM, 72 h exposure): 71%; cell viability diminished by ([6]; concentrations exceeding 10 µM): approximately 20%; LDH release (cytotoxic rate) [7]: 52.7%"
"C=C(C)[C@@H]1CC[C@]2(C(=O)NCC(=O)NCC(=O)NCC(=O)O)CC[C@]3(C)[C@H](CC[C@@H]4[C@@]5(C)Cc6c([nH]c7ccccc67)C(C)(C)[C@@H]5CC[C@]43C)[C@@H]12 [BA1, N-(2,3-indolo-betulinoyl)diglycylglycine]",,apoptosis features only at a concentration of 75 μM; also recorded: apoptotic characteristics only at a concentration of 75 μM,27,10.34 ± 0.06,5.7,,,,~70,35,,IC50 [9]: 5.7 µM
"C=C(C)[C@@H]1CC[C@]2(C(=O)NCC(=O)O)CC[C@]3(C)[C@H](CC[C@@H]4[C@@]5(C)Cc6c([nH]c7ccccc67)C(C)(C)[C@@H]5CC[C@]43C)[C@@H]12 [BA3, N-(2,3-indolo-betulinoyl)glycine]",21.3,necrosis process being observed from concentration of 25 μM; also recorded: necrotic process being apparent at a dosage of 25 μM,,8.11 ± 0.13,-1.5,8.1,,,~70,,approximately 2.20 fold,
"C=C(C)[C@@H]1CC[C@]2(C(=O)NCC(=O)NCC(=O)O)CC[C@]3(C)[C@H](CC[C@@H]4[C@@]5(C)Cc6c([nH]c7ccccc67)C(C)(C)[C@@H]5CC[C@]43C)[C@@H]12 [BA2, N-(2,3-indolo-betulinoyl)glycylglycine]",10.0,"specific signs of apoptosis (chromatin condensation) at both concentrations of 50 and 75 μM; also recorded: distinct signs of apoptosis, such as chromatin condensation, at both concentrations of 50 and 75 μM",15,9.15 ± 0.05,,15.9,,,~70,30,approximately 2.20 fold,"viability at 50 µM ([5]; Mus musculus, B16-4A5, 72 h, read-out: cell viability, 50 µM, 72 h, MTT): 0.41%"
"C=C(C)C1CCC2(C(=O)O)CCC3(C)C(CCC4C5(C)Cc6c([nH]c7ccccc67)C(C)(C)C5CCC43C)C12 (stereo not shown) [BA4, 2,3-indolo-betulinic acid]",,necrosis only from a concentration of 50 μM; also recorded: necrosis was evident in cells exposed to BA4 and BI only at a concentration of 50 μM,,17.62 ± 0.11,15,,around 21%,43.36,,,,"viability rate (SK-MEL-2 cells): 57%; viability percentage (Lox IMVI melanoma cells): 44%; activity relative to parent triterpenoid BI ([5]; ratio of IC50 values): 1.2 times; viability at 72 h, 75 µM [10]: 80.3%; cytotoxic rate (LDH) ([8]; 75 µM): 32.8%"
